Measurements taken from US20090012152A1, “Use of Tetramic Acid Derivatives for Controlling Insects from the Genus of the Plane Lice (Sternorrhyncha)” (Bayer CropScience Aktiengesellschaft, priority 2005, published 2009).

What was measured:
Type in all cases: in vivo
[1] = test system: Pseudococcus citri; assay: Example 26: citrus trees treated against Pseudococcus citri; conditions: 62 days after treatment, larvae on fruits, g a.i./ha/m crown height: Dursban 960, I-4 72
Experimental: In three replications, in plots of a size of about 20 m^2, citrus trees of the cultivar “Oro Nules” are treated against Pseudococcus citri. The application is carried out using a high-pressure sprayer. Here, the active compound Example (I-4) (240 SC), in a tank mix with 0.1% a.i. of rapeseed oil methyl ester (500 EW), is tested against the commercial standard Dursban (480 EC), at the stated application rates. The application rate is 2500 l of water/ha.
Evaluation is carried out 62 days after the treatment by rating the kill of the larvae on the fruits.

[2] = test system: Quadraspidiotus perniciosus; assay: Example 21: almond tree treated against Quadraspidiotus perniciosus; conditions: on branches, per metre crown height: Dursban 2240 g/ha, I-4 110 g/ha
Experimental: In four replications, an about 20-year-old almond tree of the cultivar “Non-Pareil” is treated against Quadraspidiotus perniciosus. The application is carried out using a high-pressure sprayer. Here, the active compound Example (I-4) (240 SC) in a tank mix with 0.125% a.i. of methylated seed oil (1000 EC) and the commercial standard Lorsban (480 EC) are tested at the stated application rates. The amount of spray liquor is 935 l/ha.
Evaluation is carried out 21, 42 and 63 days after the treatment by rating the kill of the animals on the branches.

[3] = test system: Lepidosaphes beckii; assay: Example 18: citrus trees treated against Lepidosaphes beckii; conditions: 140 days after treatment, larvae on fruits, g a.i./ha/m crown height: pyriproxyfen 50, I-4 48
Experimental: In three replications, in plots of a size of about 20 m^2, citrus trees of the cultivar “Oro Nules” are treated against Lepidosaphes beckii. The application is carried out using a high-pressure sprayer. Here, the active compound Example (I-4) (240 SC) in a tank mix with 0.1% a.i. of rapeseed oil methyl ester (500 EW) is tested against the commercial standard pyriproxyfen (100 EC), at the stated application rates. The application rate is 2500 l of water/ha.
Evaluation is carried out 140 days after the treatment by rating the kill of the larvae on the fruits.

[4] = test system: Macrosiphum euphorbiae; assay: Example 46: head lettuce treated against Macrosiphum euphorbiae; conditions: nymphs on plants, g a.i./ha: endosulfan 1120, I-4 48
Experimental: (§1) In four replications, plots of a size of about 33 m^2 with head lettuce of the cultivar “PIC 714” are treated against Aulacorthum solani, Macrosiphum euphorbiae and Myzus persicae. The application is carried out using a tractor sprayer. Here, the active compound Example (I-4) (240 SC), in a tank mix with 0.2% a.i. of rapeseed oil methyl ester (500 EW), is tested against the commercial standard endosulfan (360 EC), at the stated application rates. The application rate is 187 l of water/ha. Two treatments are carried out, at an interval of 22 days.
(§2) Evaluation is carried out 8, 22, 30 and 40 days after the first treatment by rating the kill of the nymphs on the plants.

[5] = test system: Trialeurodes vaporariorum; assay: Example 34: tomatoes treated against Trialeurodes vaporariorum; conditions: larvae on leaves, % a.i.: imidacloprid 0.015, I-9 0.0144, I-4 0.0144
Experimental: In three replications, plots of a size of 5 m^2 with tomatoes of the cultivar “Rio Grande” are treated against Trialeurodes vaporariorum. The application is carried out using a motor-operated knapsack apparatus. Here, the active compounds Example (I-9) (240 SC) and Example (I-4) (240 SC) and the commercial standard imidacloprid (200 SL) are tested at the stated application rates. The application rate is 1000 l of water/ha. Three applications are carried out, at an interval of 11 or 10 days.
Evaluation is in each case carried out 7 or 10 days after each treatment, by rating the kill of the larvae on the leaves.

[6] = test system: Myzus persicae; assay: Example 48: aubergine plants treated against Myzus persicae; conditions: on leaves, rate (g of a.i./ha): pymethrozine 0.0125, I-4 0.024
Experimental: In three replications, four aubergine plants (age about 7 months) of the cultivar “Hayabusa” are treated against Myzus persicae. The application is carried out using a motor-operated knapsack sprayer. Here, the active compound Example (I-4) (240 SC), in a tank mix with 0.1% a.i. of rapeseed oil methyl ester (500 EW), and the commercial standard pymethrozine (25 WP) are tested at the stated application rates. The application rate is 3000 l of water/ha.
Evaluation is carried out 7, 14, 21 and 29 days after the treatment by rating the kill of the animals on the leaves.

[7] = test system: Bemisia argentifolii; assay: Example 36: aubergine plants (Ryoma) treated against Bemisia argentifolii; conditions: nymphs on leaves, % a.i.: pymetrozine 0.0125, I-4 0.072, I-8 0.06
Experimental: In three replications, in each case four aubergine plants of the cultivar “Ryoma” are treated against Bemisia argentifolii. The application is carried out using a motor-operated knapsack sprayer. Here, the active compounds Example (I-4) and Example (I-8), in a tank mix with 0.2% a.i. of rapeseed oil methyl ester (500 EW), and the commercial standard pymetrozine (25 WP) are tested at the stated application rates. The application rate is 3200 l of water/ha.
Evaluation is carried out 13, 20 and 27 days after the treatment by rating the kill of the nymphs on the leaves.

[8] = test system: Aulacorthum solani; assay: Example 46: head lettuce treated against Aulacorthum solani; conditions: nymphs on plants, g a.i./ha: endosulfan 1120, I-4 48
Experimental: as §1, §2

[9] = test system: Toxoptera citricida; assay: Example 45: orange tree treated against Toxoptera citricida; conditions: on leaves, % a.i.: imidacloprid 0.0125, I-9 0.0144, I-4 0.0144; for Kill (%) 6 d: 6 d after treatment; for Kill (%) 20 d: 20 d after treatment
Experimental: In three replications, in each case one about 8-year-old orange tree of the cultivar “Navel” is treated against Toxoptera citricida. Here, the active compounds Example (I-9) (240 SC) and Example (I-4) (240 SC), in a tank mix with 0.1% a.i. of Marlipal, are tested against the commercial standard imidacloprid (350 SC), at the stated application rates. The application is carried out using a motor-operated knapsack sprayer, the application rate being 6.7 l of water/plant.
Evaluation is carried out 6 and 20 days after the treatment by rating the kill of the animals on the leaves.

[10] = 8 d after first of two treatments
[11] = 22 d after first of two treatments
[12] = 30 d after first of two treatments
[13] = 40 d after first of two treatments

CCOC(=O)OC1=C(c2cc(C)ccc2C)C(=O)NC12CCC(OC)CC2 (stereo not drawn) [Example (I-4)]
Kill (%) 62 days [1]: 99%
Kill (%) 21 d ([2]; 21 d after treatment): 84.9%
Kill (%) 42 d ([2]; 42 d after treatment): 90%
Kill (%) 63 d ([2]; 63 d after treatment): 94.6%
Kill (%) 140 days [3]: 100%
Kill (%) 8 d [4, 10]: 95%
Kill (%) 22 d [4, 11]: 100%
Kill (%) 30 d [4, 12]: 100%
Kill (%) 40 d [4, 13]: 96%
Kill (%) 7 d after the 2nd treatment [5]: 100%
Kill (%) 10 d after the 1st treatment [5]: 81.9%
Kill (%) 10 d after the 3rd treatment [5]: 94.3%
Kill (%) 7 d ([6]; 7 d after treatment): 99.7%
Kill (%) 14 d ([6]; 14 d after treatment): 99.7%
Kill (%) 21 d ([6]; 21 d after treatment): 98%
Kill (%) 29 d ([6]; 29 d after treatment): 97%
Kill (%) 13 d ([7]; 13 d after treatment): 99.6%
Kill (%) 20 d ([7]; 20 d after treatment): 100%
Kill (%) 27 d ([7]; 27 d after treatment): 97%
Kill (%) 8 d [8, 10]: 100%
Kill (%) 22 d [8, 11]: 99%
Kill (%) 30 d [8, 12]: 79%
Kill (%) 40 d [8, 13]: 87%
Kill (%) 6 d [9]: 97%
Kill (%) 20 d [9]: 97%

O=[N+]([O-])NC1=NCCN1Cc1ccc(Cl)nc1 [imidacloprid, reference compound]
Kill (%) 7 d after the 2nd treatment [5]: 88.4%
Kill (%) 10 d after the 1st treatment [5]: 53.5%
Kill (%) 10 d after the 3rd treatment [5]: 67.5%
Kill (%) 6 d [9]: 99%
Kill (%) 20 d [9]: 94%
